In patent publication US6737383B1, “Herbicidal oxadiazolidines” (priority 1999, dated 2004):

Columns and labels:
duck salad = assay: Test B flood test duck salad; type: in vivo, Heteranthera limosa
Outline: (§1)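 Flood test on plants grown to the 2-leaf stage; treated plants kept in greenhouse twelve to sixteen days, then visually rated against controls on a 0 (no effect) to 10 (complete control) scale.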

purple nutsedge = assay: Test B pre/postemergence purple nutsedge; type: in vivo, Cyperus rotundus
Outline: (§2)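 Response is a visual 0-to-10 score relative to untreated plants, where 0 means no effect and 10 means complete control, taken twelve to sixteen days after application. Treatments went onto soil at planting and onto foliage of 1- to 4-leaf plants, using a surfactant-containing non-phytotoxic solvent.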

wheat = assay: Test B pre/postemergence wheat; type: in vivo, Triticum aestivum
Outline: as §2

soybean = assay: Test B pre/postemergence soybean; type: in vivo, Glycine max
Outline: as §2

morningglory = assay: Test B pre/postemergence morningglory; type: in vivo, Ipomoea hederacea
Outline: as §2

rice = assay: Test B flood test rice; type: in vivo, Oryza sativa
Outline: as §1

wild oat = assay: Test B pre/postemergence wild oat; type: in vivo, Avena fatua
Outline: as §2

pigweed = assay: Test B pre/postemergence pigweed; type: in vivo, Amaranthus retroflexus
Outline: as §2

crabgrass = assay: Test B pre/postemergence crabgrass; type: in vivo, Digitaria sanguinalis
Outline: as §2

giant foxtail = assay: Test B pre/postemergence giant foxtail; type: in vivo, Setaria faberii
Outline: as §2

velvetleaf = assay: Test B pre/postemergence velvetleaf; type: in vivo, Abutilon theophrasti
Outline: as §2

rape = assay: Test B pre/postemergence rape; type: in vivo, Brassica napus
Outline: as §2

sugar beet = assay: Test B pre/postemergence sugar beet; type: in vivo, Beta vulgaris
Outline: as §2

corn = assay: Test B pre/postemergence corn; type: in vivo, Zea mays
Outline: as §2

smallflower flatsedge = assay: Test B flood test smallflower flatsedge; type: in vivo, Cyperus difformis
Outline: as §1

cocklebur = assay: Test B pre/postemergence cocklebur; type: in vivo, Xanthium strumarium
Outline: as §2

[1] = Rate 62 g/ha, headed Pre-emergence (flood test species), scale 0 to 10 (0 no effect, 10 complete control)
[2] = Rate 125 g/ha, Pre-emergence, flood test species, scale 0 to 10 where 0 is no effect and 10 is complete control
[3] = Rate 250 g/ha, Pre-emergence, flood-test species, scale 0 to 10, 0 is no effect, 10 is complete control
[4] = Rate 500 g/ha, Pre-emergence, flood test species, scale 0 to 10 (0 no effect, 10 complete control)
[5] = Preemergence, Rate 62 g/ha, scale of 0 to 10 where 0 is no effect and 10 is complete control
[6] = Preemergence, Rate 250 g/ha, scale of 0 to 10 where 0 is no effect and 10 is complete control
[7] = Preemergence, Rate 500 g/ha, scale of 0 to 10 where 0 is no effect and 10 is complete control
[8] = Rate 62 g/ha, Postemergence, scale of 0 to 10 where 0 is no effect and 10 is complete control
[9] = Rate 125 g/ha, Postemergence, scale 0 to 10
[10] = Rate 125 g/ha, Preemergence, scale of 0 to 10 where 0 is no effect and 10 is complete control
[11] = Rate 500 g/ha, Postemergence, scale 0 to 10, 0 no effect, 10 complete control

CCN(C(=O)n1oc(=O)n(C)c1=O)C1CCCCC1 [Compound 228]
Ducksalad plant response rating (duck salad; [1]): 0
Ducksalad plant response rating (duck salad; [2]): 0
Ducksalad plant response rating (duck salad; [3]): 0
Ducksalad plant response rating (duck salad; [4]): 0
Nutsedge plant response rating (purple nutsedge; [5]): 0
Nutsedge plant response rating (purple nutsedge; [6]): 0
Plant response rating, Nutsedge (purple nutsedge; [7]): 0
Nutsedge plant response rating (purple nutsedge; [8]): 0
Nutsedge plant response rating (purple nutsedge; [9]): 0
Nutsedge plant response rating (purple nutsedge; [10]): 0
Plant response rating (0 to 10; 0 is no effect, 10 is complete control), Nutsedge (purple nutsedge; Rate 250 g/ha, Postemergence): 0
Nutsedge plant response rating (purple nutsedge; [11]): 0
Wheat plant response rating (wheat; [5]): 0
Wheat plant response rating (wheat; [6]): 0
Plant response rating, Wheat (wheat; [7]): 0
Wheat plant response rating (wheat; [8]): 0
Wheat plant response rating (wheat; [9]): 0
Wheat plant response rating (wheat; [10]): 0
Plant response rating (0 to 10; 0 is no effect, 10 is complete control), Wheat (wheat; Rate 250 g/ha, Postemergence): 0
Wheat plant response rating (wheat; [11]): 0
Soybean plant response rating (soybean; [5]): 0
Soybean plant response rating (soybean; [6]): 0
Plant response rating, Soybean (soybean; [7]): 0
Soybean plant response rating (soybean; [8]): 0
Soybean plant response rating (soybean; [9]): 0
Soybean plant response rating (soybean; [10]): 0
Plant response rating (0 to 10; 0 is no effect, 10 is complete control), Soybean (soybean; Rate 250 g/ha, Postemergence): 1
Soybean plant response rating (soybean; [11]): 1
Morningglory plant response rating (morningglory; [5]): 0
Morningglory plant response rating (morningglory; [6]): 0
Plant response rating, Morningglory (morningglory; [7]): 0
Morningglory plant response rating (morningglory; [8]): 2
Morningglory plant response rating (morningglory; [9]): 3
Morningglory plant response rating (morningglory; [10]): 0
Plant response rating (0 to 10; 0 is no effect, 10 is complete control), Morningglory (morningglory; Rate 250 g/ha, Postemergence): 3
Morningglory plant response rating (morningglory; [11]): 9
Rice plant response rating (rice; [1]): 0
Rice plant response rating (rice; [2]): 0
Rice plant response rating (rice; [3]): 0
Rice plant response rating (rice; [4]): 0
Wild oats plant response rating (wild oat; [5]): 0
Wild oats plant response rating (wild oat; [6]): 0
Plant response rating, Wild oats (wild oat; [7]): 0
Wild oats plant response rating (wild oat; [8]): 0
Wild oats plant response rating (wild oat; [9]): 0
Wild oats plant response rating (wild oat; [10]): 0
Plant response rating (0 to 10; 0 is no effect, 10 is complete control), Wild oats (wild oat; Rate 250 g/ha, Postemergence): 0
Wild oats plant response rating (wild oat; [11]): 0
Redroot pigweed plant response rating (pigweed; [5]): 0
Redroot pigweed plant response rating (pigweed; [6]): 0
Plant response rating, Redroot pigweed (pigweed; [7]): 0
Redroot pigweed plant response rating (pigweed; [8]): 0
Redroot pigweed plant response rating (pigweed; [9]): 0
Redroot pigweed plant response rating (pigweed; [10]): 0
Plant response rating (0 to 10; 0 is no effect, 10 is complete control), Redroot pigweed (pigweed; Rate 250 g/ha, Postemergence): 0
Redroot pigweed plant response rating (pigweed; [11]): 2
Crabgrass plant response rating (crabgrass; [5]): 0
Crabgrass plant response rating (crabgrass; [6]): 1
Plant response rating, Crabgrass (crabgrass; [7]): 2
Crabgrass plant response rating (crabgrass; [8]): 0
Crabgrass plant response rating (crabgrass; [9]): 0
Crabgrass plant response rating (crabgrass; [10]): 0
Plant response rating (0 to 10; 0 is no effect, 10 is complete control), Crabgrass (crabgrass; Rate 250 g/ha, Postemergence): 0
Crabgrass plant response rating (crabgrass; [11]): 0
Giant foxtail plant response rating (giant foxtail; [6]): 9
Plant response rating, Giant foxtail (giant foxtail; [7]): 9
Giant foxtail plant response rating (giant foxtail; [8]): 0
Giant foxtail plant response rating (giant foxtail; [9]): 0
Giant foxtail plant response rating (giant foxtail; [10]): 6
Plant response rating (0 to 10; 0 is no effect, 10 is complete control), Giant foxtail (giant foxtail; Rate 250 g/ha, Postemergence): 0
Giant foxtail plant response rating (giant foxtail; [11]): 0
Velvetleaf plant response rating (velvetleaf; [5]): 0
Velvetleaf plant response rating (velvetleaf; [6]): 0
Plant response rating, Velvetleaf (velvetleaf; [7]): 0
Velvetleaf plant response rating (velvetleaf; [8]): 0
Velvetleaf plant response rating (velvetleaf; [9]): 0
Velvetleaf plant response rating (velvetleaf; [10]): 0
Plant response rating (0 to 10; 0 is no effect, 10 is complete control), Velvetleaf (velvetleaf; Rate 250 g/ha, Postemergence): 0
Velvetleaf plant response rating (velvetleaf; [11]): 0
Rape plant response rating (rape; [5]): 0
Rape plant response rating (rape; [6]): 0
Plant response rating, Rape (rape; [7]): 0
Rape plant response rating (rape; [8]): 0
Rape plant response rating (rape; [9]): 0
Rape plant response rating (rape; [10]): 0
Plant response rating (0 to 10; 0 is no effect, 10 is complete control), Rape (rape; Rate 250 g/ha, Postemergence): 0
Rape plant response rating (rape; [11]): 0
Sugarbeets plant response rating (sugar beet; [5]): 0
Sugarbeets plant response rating (sugar beet; [6]): 0
Plant response rating, Sugarbeets (sugar beet; [7]): 0
Sugarbeets plant response rating (sugar beet; [8]): 0
Sugarbeets plant response rating (sugar beet; [9]): 0
Sugarbeets plant response rating (sugar beet; [10]): 0
Plant response rating (0 to 10; 0 is no effect, 10 is complete control), Sugarbeets (sugar beet; Rate 250 g/ha, Postemergence): 3
Sugarbeets plant response rating (sugar beet; [11]): 4
Corn plant response rating (corn; [5]): 0
Corn plant response rating (corn; [6]): 0
Plant response rating, Corn (corn; [7]): 0
Corn plant response rating (corn; [8]): 0
Corn plant response rating (corn; [9]): 0
Corn plant response rating (corn; [10]): 0
Plant response rating (0 to 10; 0 is no effect, 10 is complete control), Corn (corn; Rate 250 g/ha, Postemergence): 0
Corn plant response rating (corn; [11]): 2
S. Flatsedge plant response rating (smallflower flatsedge; [1]): 0
S. Flatsedge plant response rating (smallflower flatsedge; [2]): 0
S. Flatsedge plant response rating (smallflower flatsedge; [3]): 0
S. Flatsedge plant response rating (smallflower flatsedge; [4]): 0
Cocklebur plant response rating (cocklebur; [5]): 0
Cocklebur plant response rating (cocklebur; [6]): 0
Plant response rating, Cocklebur (cocklebur; [7]): 0
Cocklebur plant response rating (cocklebur; [8]): 0
Cocklebur plant response rating (cocklebur; [9]): 0
Cocklebur plant response rating (cocklebur; [10]): 0
Plant response rating (0 to 10; 0 is no effect, 10 is complete control), Cocklebur (cocklebur; Rate 250 g/ha, Postemergence): 0
Cocklebur plant response rating (cocklebur; [11]): 0
